Measured values as given in PMC6370856, “Peptidyl prolyl cis/trans isomerase activity on the cell surface correlates with extracellular matrix development” (Communications Biology, 2019).

Columns and labels:
[1] = tested on: fibrin hydrogel; assay: Stiffness (storage modulus) of fibrin gel by rheometer; details: for Storage Modulus Mean: fibrin gel
Procedure: (§1) To minimize sample evaporation at 37 °C, a tissue paper wet in HEPEs buffer (10 mM, pH 7.8) was placed inside the H-PTD chamber to increase the humidity. […] The cone and plate were treated with plasma for 5 min to increase the hydrophilicity of the metal surface.
Fibrin gel: Fibrinogen (Shanghai Laishi Xuezhipin Limited Company) was dissolved in PBS with a concentration of 22.2 mg mL^−1 overnight at room temperature with gentle shaking and aliquoted in protein low-binding tubes (45 µL per tube). […] Fifty microliters of thrombin (4 EU mL^−1 in PBS with 1.8 mM CaCl2) was added and pipetted up and down ten times. Then, it was transferred to the rheometer plate for measurement. […] For each condition, two independent experiments were performed (Fig. 1a and Supplementary Fig. 1).

[2] = tested on: collagen hydrogel (Type I, rat-tail); assay: Step-strain rheological measurement, self-healing of collagen hydrogel
Procedure: Another important feature of the dynamic ECMs is their self-healing property, which can be tested using a step-strain rheological measurement. A strong strain is applied to liquify the materials, and the recovery of storage modulus is followed (self-healing) (Fig. 1b). Collagen hydrogel can only partially recover its storage modulus after the first cycle. The rate and extent of recovery were unchanged over the following cycles.
as §1

Substance: CypA: recombinant cyclophilin A, a PPIase, expressed in E. coli
- effect on storage modulus of fibrin hydrogel ([1]; 1 µM CypA): remarkably enhanced
- Storage Modulus Mean ([1]; 1 micromolar CypA, 3 min): 56.652 Pa
- Storage Modulus Mean ([1]; 1 micromolar CypA, 3.5 min): 58.3965 Pa
- Storage Modulus Mean ([1]; 1 micromolar CypA, 4 min): 59.006 Pa
- Storage Modulus Mean ([1]; 1 micromolar CypA, 4.5 min): 60.5775 Pa
- Storage Modulus Mean ([1]; 1 micromolar CypA, 5 min): 62.605 Pa
- Storage Modulus Mean ([1]; 1 micromolar CypA, 6 min): 64.745 Pa
- Storage Modulus Mean ([1]; 1 micromolar CypA, 6.5 min): 65.763 Pa
- Storage Modulus Mean ([1]; 1 micromolar CypA, 7 min): 66.7405 Pa
- Storage Modulus Mean ([1]; 1 micromolar CypA, 7.5 min): 67.652 Pa
- Storage Modulus Mean ([1]; 1 micromolar CypA, 8 min): 68.8195 Pa
- Storage Modulus Mean ([1]; 1 micromolar CypA, 8.5 min): 69.705 Pa
- Storage Modulus Mean ([1]; 1 micromolar CypA, 9 min): 70.143 Pa
- Storage Modulus Mean ([1]; 1 micromolar CypA, 9.5 min): 71.2125 Pa
- Storage Modulus Mean ([1]; 1 micromolar CypA, 10 min): 72.402 Pa
- Storage Modulus Mean ([1]; 1 micromolar CypA, 11 min): 74.113 Pa
- Storage Modulus Mean ([1]; 1 micromolar CypA, 12 min): 75.428 Pa
- Storage Modulus Mean ([1]; 1 micromolar CypA, 12.5 min): 75.9135 Pa
- Storage Modulus Mean ([1]; 1 micromolar CypA, 13 min): 76.613 Pa
- Storage Modulus Mean ([1]; 1 micromolar CypA, 14 min): 77.9915 Pa
- Storage Modulus Mean ([1]; 1 micromolar CypA, 15 min): 78.877 Pa
- Storage Modulus Mean ([1]; 3 micromolar CypA, 3 min): 56.9022 Pa
- Storage Modulus Mean ([1]; 3 micromolar CypA, 3.5 min): 58.8285 Pa
- Storage Modulus Mean ([1]; 3 micromolar CypA, 4 min): 60.4529 Pa
- Storage Modulus Mean ([1]; 3 micromolar CypA, 5 min): 63.4816 Pa
- Storage Modulus Mean ([1]; 3 micromolar CypA, 6 min): 65.1141 Pa
- Storage Modulus Mean ([1]; 3 micromolar CypA, 6.5 min): 66.9921 Pa
- Storage Modulus Mean ([1]; 3 micromolar CypA, 7 min): 68.0463 Pa
- Storage Modulus Mean ([1]; 3 micromolar CypA, 7.5 min): 69.6441 Pa
- Storage Modulus Mean ([1]; 3 micromolar CypA, 8 min): 70.5045 Pa
- Storage Modulus Mean ([1]; 3 micromolar CypA, 8.5 min): 71.5921 Pa
- Storage Modulus Mean ([1]; 3 micromolar CypA, 9 min): 72.9987 Pa
- Storage Modulus Mean ([1]; 3 micromolar CypA, 9.5 min): 73.9279 Pa
- Storage Modulus Mean ([1]; 3 micromolar CypA, 10 min): 75.4268 Pa
- Storage Modulus Mean ([1]; 3 micromolar CypA, 11 min): 76.965 Pa
- Storage Modulus Mean ([1]; 3 micromolar CypA, 12 min): 78.6581 Pa
- Storage Modulus Mean ([1]; 3 micromolar CypA, 12.5 min): 79.6539 Pa
- Storage Modulus Mean ([1]; 3 micromolar CypA, 13 min): 80.8472 Pa
- Storage Modulus Mean ([1]; 3 micromolar CypA, 14 min): 81.859 Pa
- Storage Modulus Mean ([1]; 3 micromolar CypA, 15 min): 84.0373 Pa
- Storage Modulus Mean ([1]; 9 micromolar CypA, 3 min): 62.185 Pa
- Storage Modulus Mean ([1]; 9 micromolar CypA, 3.5 min): 63.846 Pa
- Storage Modulus Mean ([1]; 9 micromolar CypA, 4 min): 65.982 Pa
- Storage Modulus Mean ([1]; 9 micromolar CypA, 4.5 min): 68.114 Pa
- Storage Modulus Mean ([1]; 9 micromolar CypA, 5 min): 69.837 Pa
- Storage Modulus Mean ([1]; 9 micromolar CypA, 6 min): 72.811 Pa
- Storage Modulus Mean ([1]; 9 micromolar CypA, 6.5 min): 74.461 Pa
- Storage Modulus Mean ([1]; 9 micromolar CypA, 7 min): 75.619 Pa
- Storage Modulus Mean ([1]; 9 micromolar CypA, 7.5 min): 77.1405 Pa
- Storage Modulus Mean ([1]; 9 micromolar CypA, 8 min): 78.5045 Pa
- Storage Modulus Mean ([1]; 9 micromolar CypA, 8.5 min): 79.81 Pa
- Storage Modulus Mean ([1]; 9 micromolar CypA, 9 min): 80.8145 Pa
- Storage Modulus Mean ([1]; 9 micromolar CypA, 9.5 min): 82.609 Pa
- Storage Modulus Mean ([1]; 9 micromolar CypA, 10 min): 83.584 Pa
- Storage Modulus Mean ([1]; 9 micromolar CypA, 11 min): 86.0735 Pa
- Storage Modulus Mean ([1]; 9 micromolar CypA, 12 min): 88.4775 Pa
- Storage Modulus Mean ([1]; 9 micromolar CypA, 12.5 min): 89.3905 Pa
- Storage Modulus Mean ([1]; 9 micromolar CypA, 13 min): 90.5025 Pa
- Storage Modulus Mean ([1]; 9 micromolar CypA, 14 min): 91.758 Pa
- Storage Modulus Mean ([1]; 9 micromolar CypA, 15 min): 94.897 Pa
- Storage Modulus Mean ([1]; 9 micromolar CypA, 15.5 min): 96.242 Pa
- Storage Modulus Mean ([1]; 20 micromolar CypA, 3 min): 48.845 Pa
- Storage Modulus Mean ([1]; 20 micromolar CypA, 3.5 min): 49.5435 Pa
- Storage Modulus Mean ([1]; 20 micromolar CypA, 4 min): 50.3955 Pa
- Storage Modulus Mean ([1]; 20 micromolar CypA, 4.5 min): 50.963 Pa
- Storage Modulus Mean ([1]; 20 micromolar CypA, 5 min): 51.714 Pa
- Storage Modulus Mean ([1]; 20 micromolar CypA, 6 min): 52.522 Pa
- Storage Modulus Mean ([1]; 20 micromolar CypA, 6.5 min): 53.309 Pa
- Storage Modulus Mean ([1]; 20 micromolar CypA, 7 min): 53.9025 Pa
- Storage Modulus Mean ([1]; 20 micromolar CypA, 7.5 min): 54.3695 Pa
- Storage Modulus Mean ([1]; 20 micromolar CypA, 8 min): 54.713 Pa
- Storage Modulus Mean ([1]; 20 micromolar CypA, 8.5 min): 55.308 Pa
- Storage Modulus Mean ([1]; 20 micromolar CypA, 9 min): 55.0885 Pa
- Storage Modulus Mean ([1]; 20 micromolar CypA, 9.5 min): 56.131 Pa
- Storage Modulus Mean ([1]; 20 micromolar CypA, 10 min): 56.586 Pa
- Storage Modulus Mean ([1]; 20 micromolar CypA, 11 min): 57.3845 Pa
- Storage Modulus Mean ([1]; 20 micromolar CypA, 12 min): 58.3285 Pa
- Storage Modulus Mean ([1]; 20 micromolar CypA, 12.5 min): 58.642 Pa
- Storage Modulus Mean ([1]; 20 micromolar CypA, 14 min): 59.019 Pa
- Storage Modulus Mean ([1]; 20 micromolar CypA, 15 min): 59.9075 Pa
- Storage Modulus Mean ([1]; 20 micromolar CypA, 15.5 min): 60.0285 Pa
- stiffness and extent of recovery in the self-healing process of collagen hydrogel [2]: remarkably enhanced
